Patent US20220323427A1, “SOMATOSTATIN RECEPTOR TYPE 5 AGONIST FOR THE TREATMENT OF HYPERINSULINISM” (Crinetics Pharmaceuticals, Inc., priority 2021, published 2022)

Columns and labels:
[1] = target: T1, human somatostatin receptor subtype 5 (Homo sapiens, UniProt P35346); assay: cAMP assay for SST5R; assay type: cell-based
T1 construct: expressed in transfected cells
Text: General overview: All five SSTR subtypes are Gi coupled G-protein coupled receptors (GPCRs) that lead to decreases in intracellular cyclic AMP (cAMP) when activated by an agonist. Therefore, measurement of intracellular cAMP levels can be used to assess whether compounds of the invention are agonists of SSTR subtypes (John Kelly, Troy Stevens, W. Joseph Thompson, and Roland Seifert, Current Protocols in Pharmacology, 2005, 2.2.1-2.2). One example of an intracellular cAMP assay is described below.
Four days prior to the assay, 2,000 Chinese hamster ovary cells (CHO-K1, ATCC #CCL-61) stably expressing the human somatostatin receptor subtype 5 are plated in each well of a 96-well tissue culture-treated plate in Ham's F12 growth media (ThermoFisher #10-080-CM) supplemented with 10% donor bovine serum (Gemini Bio-Products #100-506), 100 U/mL penicillin; 100 μg/mL streptomycin; 2 mM L-glutamine (Gemini Bio-Products #400-110) and 0.25 mg/mL G418 Sulfate (GoldBio #108321-42-2). The cells are cultured at 37° C., 5% CO2 and 95% humidity. […] The time-resolved fluorescent signal is read with a Tecan M1000Pro multiplate reader. The intracellular cAMP concentrations are calculated by regression to a standard curve and are plotted vs. the concentration of the compounds of the invention and the EC50 of the compounds are calculated using standard methods. […]

[2] = test system: human pancreatic islets; assay: Glucagon secretion in perifused human islets; assay type: cell-based; settings: islets from a healthy donor; G3+Arg
Experimental: For glucagon secretion, glucose (Boston BioProducts #BM-675) solutions, G3, G16.7 and G3 plus 20 mM arginine (Sigma #A8094; G3+Arg) were prepared in PB [24 mM NaHCO3 (Fisher Scientific #S233-500), 120 mM NaCl (Spectrum Chemical #S0155), 4.8 mM KCl (Fisher Scientific #P217-500), 2.5 mM CaCl2 (Fisher Scientific #C614-500), 1.2 mM MgCl2 (Sigma #M8266), 10 mM HEPES (Gibco #15630-080) and 0.1% BSA (EMD Millipore #12-675-100GM)]. Various concentrations of Compound 1 and diazoxide (Sigma #D9035) were prepared in G16.7 or in G3+Arg. On the day of the assay, ten perifusion chambers (Biorep #Peri-chamber) were loaded with a bead suspension (Biorep #Peri-beads-20) followed by 300 IEQ and another layer of bead suspension. Chambers were filled with PB, placed in the perifusion equipment and equilibrated with G3 for 74 min (flow rate=230 μL/min) followed by the perifusion steps for glucagon secretion shown in Table 3. […] Glucagon concentration was quantified using the commercially-available Mercodia Glucagon ELISA (Mercodia #10-1271-01) kit. undiluted perfusate samples were added to the supplied pre-coated assay plates. […] The optical density of each well was determined at 450 nm in a Tecan M1000Pro (Tecan, Switzerland) multiplate reader. Glucagon concentrations were calculated by regression to the standard curve using GraphPad Prism (GraphPad, San Diego, Calif.).

[3] = test system: major human CYP enzymes; assay: CYP inhibition or induction; assay type: in vitro ADME; settings: including CYP2C9 and CYP3A4
[4] = Fasting glucose, insulin and C-peptide, MAD; assay type: in vivo, human; settings: 30-120 mg QD for 10 days
Text: Patients with congenital HI have fasting hypoglycemia due to excess endogenous insulin secretion. Metabolic biomarkers including glucose, insulin, C-peptide, and βhydroxybutyrate will be collected throughout both the SAD and MAD to assess the effect of single and multiple doses of Compound 1.

T1 sequence (P35346 whole entry): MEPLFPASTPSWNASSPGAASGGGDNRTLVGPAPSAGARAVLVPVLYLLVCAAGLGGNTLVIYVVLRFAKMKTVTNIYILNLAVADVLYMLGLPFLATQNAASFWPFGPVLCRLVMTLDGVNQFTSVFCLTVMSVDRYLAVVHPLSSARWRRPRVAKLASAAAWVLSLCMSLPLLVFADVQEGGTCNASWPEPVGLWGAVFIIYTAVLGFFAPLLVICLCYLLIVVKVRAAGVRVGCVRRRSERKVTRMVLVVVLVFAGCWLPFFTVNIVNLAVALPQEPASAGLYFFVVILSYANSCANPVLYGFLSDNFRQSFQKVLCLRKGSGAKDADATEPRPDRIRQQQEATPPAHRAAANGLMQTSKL

Structure (SMILES): C[C@H](NC(=O)c1cnc(C#N)c(-c2cc(F)cc(F)c2)c1N1CC[C@H](N)C1)C(F)(F)F [Compound 1, 4-[(3S)-3-aminopyrrolidin-1-yl]-6-cyano-5-(3,5-difluorophenyl)-N-[(2S)-1,1,1-trifluoropropan-2-yl]pyridine-3-carboxamide]
- Fold selectivity for SST5 vs SST2 ([1]; human SST5 vs human SST2, cAMP): >500 fold
- EC50 ([1]; inhibition of cAMP, CHO-K1 cells expressing human SST5, read-out: SST5 potency (EC50; nM)): < 1 nM
- Inhibition of arginine-stimulated glucagon secretion [2]: up to 24%
- Potential for inhibition or induction of the major human CYP enzymes [3]: little or no potential for inhibition or induction
- Fasting insulin and C-peptide levels [4]: suppressed
- Fasting plasma glucose [4]: dose-dependent increase in fasting plasma glucose
